Data taken from patent publication US9593146B2, “CD44v6-derived peptides for treating metastasizing cancer” (AMCURE GMBH, priority 2012, dated 2017).

Assays:
hVEGF = assay: Human VEGF in cell culture supernatant of L3.6pl cells; format: cell-based; conditions: 200 ng/ml peptide in the culture medium, 5 days
Procedure: Determination of human HGF and VEGF levels in cell culture medium of L3.6pl cells were performed using the Quantikine Human HGF Immunoassay and Quantikine Human VEGF Immunoassay from Roche (Mannheim, GER) and R&D Systems (Wiesbaden, Germany). For this purpose 3×10^6 cells were cultured for 5 days in a 15 cm plate in the presence of the respective peptides as indicated. The supernatant (20 ml) was centrifuged (1200 rpm) and the assay was performed according to manufacturer's instructions.

BSp73ASs6 cells = assay: Apoptosis in established lung metastases (cleaved Caspase-3, cleaved Caspase-8), BSp73ASs6 rat model; format: in vivo; conditions: cleaved caspase-8 staining
Procedure: 7 μm thick paraffin sections were deparaffinized and rehydrated. For P-Met staining antigen unmasking was achieved by boiling the slides in 1 mM EDTA pH 8.0 followed by incubation for 15 minutes at a sub-boiling temperature, for CD31 staining the sections were treated with Proteinase K (8 μg/ml) for 10 min at 37° C. For immunofluorescence staining of P-Met, unspecific binding was blocked with 5% goat serum (DAKO, Glostrup, Denmark) (diluted in 1×PBS/0.3% Triton X-100) for 60 minutes. In the case of immunohistochemistry, endogenous peroxidases were at first blocked with 3% H2O2 in PBS followed by incubation with biotin blocking system (Dako, Glostrup, Denmark) and then unspecific binding was inhibited by incubation with 5% FCS in PBS. The sections were incubated with the P-Met antibody (D26, dilution 1:50 in 1×PBS/1% BSA/0.3% Triton X-100), Met antibody (C-28, dilution 1:50), GFP antibody (sc-101525, dilution 1:50) or CD31 antibody (5 μg/ml) over night or VFF18 (5 μg/ml) o/n at 4° C. After washing in PBS the sections were incubated with Alexa Fluor R 546 goat anti-rabbit (in case of immunofluorescence P-Met and Met staining, dilution 1:500) or a biotinylated secondary antibody (for immunohistochemical stainings rabbit anti-rat antibody for VFF18 and CD31, goat anti-rabbit for P-Met, cleaved Caspase-3 and cleaved Caspase-8 and rabbit anti-mouse for GFP, dilution 1:500) for 45 minutes. For DAB (3,3′-diaminobenzidine) staining the sections were treated with a streptavidin-peroxidase conjugate (Dako, Glostrup, Denmark) and developed with DAB substrate system (3,3′-diaminobenzidine; Biozol, Eching, Germany). For immunofluorescence DAPI was used for nuclear staining.
One hypothesis for the disappearance of metastases is that the peptides induce apoptosis of CD44v6-expressing metastatic cells in the secondary organs. In order to test this hypothesis, the experiment described above using the BSp73ASs6 cells was repeated. The cells were injected subcutaneously in syngeneic rats and the tumor was allowed to develop for three weeks. After that time the animals were separated in two groups of 10 animals that were injected either with the specific rat CD44v6 peptide or with the control peptide (mouse) every second day. One day following each injection of the peptide, the lungs of one animal were removed and apoptosis was measured using an antibody that detects the cleaved form of Caspase 3. […] Twelve days after injection of the CD44v6 peptide, less apoptosis was observed. […] From these experiments, it is concluded that the CD44v6 peptide induces apoptosis of metastatic cells.

HT29 cells = assay: HGF induced scattering of HT29 cells; format: cell-based, human; conditions: HT29, HGF 50 ng/ml 24 h, human peptides prior to induction (FIG. 17)
Procedure: FIG. 17: The human CD44 v6 specific peptides block HGF induced cell scattering and invasion into matrigel. Scattering of HT29 cells was determined in 24-well plates. First, 4.5×10^4 cells were seeded at 37° C.; after 24 h the cells were serum starved for additional 24 h. the cells were either left untreated (control) or later treated with HGF (50 ng/ml) for 24 h. Where indicated the cells were treated with the v6 specific peptide (human v6 5mer, 10mer, 14mer) or control peptide prior to induction with HGF for 30 min. Pictures were made using phase contrast microscopy. Magnification 40×.
A scatter assay was performed additionally. HT29 colon cancer cells were grown in medium containing 10% FCS. One day after seeding, the cells were starved. On the third day, the cells were induced with HGF (10 ng/ml) and pre-incubated with either no peptide, ctrl-peptides (SEQ ID No.: 15), non-pegylated v6-peptides (SEQ ID No.: 11) or the pegylated peptides, namely PEG-rat control peptide and PEG-rat CD44v6 peptide.
Scattering of HT29 cells was determined in 24-well plates. First, 4×10^5 cells were seeded at 37° C.; the cells were either left untreated or 48 h later treated with HGF (50 ng/ml) for 24 h or with PEGylated or non-PEGylated peptides (100 ng/ml) prior to HGF induction for 30 min.

HUVECs and HAOECs = assay: Scratch closure assay, EC migration; format: cell-based, human; conditions: 24 hours
Procedure: FIG. 18: CD44v6 is required for EC migration. HUVECs and HAOECs were grown to confluence and a wound was made into the cell monolayer with a sterile pipette tip. After washing the cells were incubated with the antibody against CD44v6, the CD44v6 peptide (human v614mer) or the control peptide as indicated. The ligands HGF, VEGF-A165 or VEGF-A121 were added and migration of the ECs was analysed after 24 hours. The numbers indicate the percentage of free area in the scratch area quantified by the computer program ImageJ.
In this assay the requirement for CD44v6 for cell migration was tested. In a scratch closure assay migration of either vein or artery ECs was tested. These cells were grown to confluence and a scratch was made into the confluent monolayer using a sterile pipette-tip. The cells lining the scratch border started to migrate into this empty space in order to close the gap. In presence of either HGF, VEGF-A165, or VEGF-A121 the cells migrated faster than in absence of the ligands and the scratch was closed within one day.

Sequence: KEQWFGNRWHEGYR [human 14mer, human CD44v6 14mer peptide]
- hVEGF secretion by L3.6pl cells (hVEGF): can be blocked
- activation of caspase-8 in lung metastases (BSp73ASs6 cells): A kinetic of activation of caspase-8 similar to the one obtained for caspase-3
- HGF induced scattering or invasion through the extracellular matrix (HT29 cells): prevented completely scattering or invasion through the extracellular matrix
- EC migration induced by HGF, VEGF-A165 or VEGF-A121 (HUVECs and HAOECs): reduced to basal levels
